The source made the active and inactive calls.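 The calls were made as follows: active = viability under 80% of untreated control mean at any tested dose, taken as cytotoxic; inactive = the rest.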
Tested on: PC3 viability, CellTiter-Glo luminescence, 72 h
Experiment: viability loss in PC3 cells – cell-based, selected hits, cytotoxicity control for HSV oncolysis enhancer project, dose response (AID 504755)

SMILES	CC50
COc1cc(C(=O)NCCCN2CCCN(CCCNC(=O)c3cc(OC)c(OC)c(OC)c3)CC2)cc(OC)c1OC	> 100 µM (inactive)
COc1cc(C(=O)OCCN2CCCN(CCOC(=O)c3cc(OC)c(OC)c(OC)c3)CC2)cc(OC)c1OC	> 100 µM (inactive)
COc1cc(OC)cc(C(=O)OCCCNCCNCCCOC(=O)c2cc(OC)cc(OC)c2)c1	31.7 µM
CN1CCN(CCCOC(=O)c2ccc(F)cc2)CC1	> 100 µM (inactive)
COc1ccc(C(=O)OCCCN2CCN(CCCOC(=O)c3ccc(OC)cc3)CC2)cc1	> 100 µM (inactive)
COc1cc(C(=O)OCCN2CCOCC2)cc(OC)c1OC	> 100 µM (inactive)
COc1cc(NC(=O)Nc2cc(OC)c(OC)c(OC)c2)cc(OC)c1OC	> 100 µM (inactive)
COc1cc(C(=O)OCCCN2CCCN(C(=O)c3ccccc3)CC2)cc(OC)c1OC	> 100 µM (inactive)
COc1cc(OC)cc(C(=O)OCCCN2CCN(CCCOC(=O)c3cc(OC)cc(OC)c3)CC2)c1	102 µM
CNCCN(C)CCCOC(=O)c1ccc(F)cc1	> 100 µM (inactive)
COc1ccc(C(=O)OCCCN2CCCC2)cc1	> 100 µM (inactive)
COc1cc(C(=O)OCCN2CCN(C)CC2)cc(OC)c1OC	> 100 µM (inactive)
COc1cc(OC)cc(C(=O)OCCN2CCCN(C)CC2)c1	> 100 µM (inactive)
COc1ccc(C(=O)OCCN2CCCN(CCOC(=O)c3ccc(OC)cc3)CC2)cc1	> 100 µM (inactive)
COc1cc(OC)cc(C(=O)OCCN2CCN(CCOC(=O)c3cc(OC)cc(OC)c3)CC2)c1	> 100 µM (inactive)
COc1cc(NC(=O)N2CCCN(C(=O)Nc3cc(OC)c(OC)c(OC)c3)CC2)cc(OC)c1OC	> 100 µM (inactive)
CNCCN(C)CCOC(=O)c1cc(OC)cc(OC)c1	> 100 µM (inactive)
CNCCN(C)CCOC(=O)c1cc(OC)c(OC)c(OC)c1	> 100 µM (inactive)
COc1cc(COCCCN2CCCN(CCCOCc3cc(OC)c(OC)c(OC)c3)CC2)cc(OC)c1OC	> 100 µM (inactive)
COc1cc(OC)cc(C(=O)OCCCN2CCN(C)CC2)c1	> 100 µM (inactive)
COc1cc(C(=O)OCCCN2CCN(CCCOC(=O)c3cc(OC)c(OC)c(OC)c3)CC2)cc(OC)c1OC	> 100 µM (inactive)
COc1cc(OC)cc(C(=O)OCCN2CCOCC2)c1	> 100 µM (inactive)
COc1cc(C(=O)N2CCCN(C(=O)c3cc(OC)c(OC)c(OC)c3)CC2)cc(OC)c1OC	> 100 µM (inactive)

SMILES	CC50
NCCCN1CCCN(CCCN)CC1	> 100 µM (inactive)
COc1cc(OC)cc(C(=O)OCCN2CCN(C)CC2)c1	> 100 µM (inactive)
COc1cc(C(=O)OCCCN2CCCN(C)CC2)cc(OC)c1OC	> 100 µM (inactive)
COc1cc(C(=O)OCCN2CCCN(Cc3ccccc3)CC2)cc(OC)c1OC	> 100 µM (inactive)
O=C(CCN1CCCN(CCC(=O)Nc2ccccc2)CC1)Nc1ccccc1	> 100 µM (inactive)
COc1ccc(C(=O)OCCN2CCN(CCOC(=O)c3ccc(OC)cc3)CC2)cc1	> 100 µM (inactive)
COc1cc(C(=O)OCCCN2CCOCC2)cc(OC)c1OC	> 100 µM (inactive)
COc1cc(C(=O)OCCCN2CCCN(CCCOC(=O)c3cc(OC)c(OC)c(OC)c3)CC2)cc(OC)c1OC	> 100 µM (inactive)
COc1ccc(C(=O)OCCCNCCNCCCOC(=O)c2ccc(OC)cc2)cc1	24.1 µM
O=C(OCCCN1CCCN(CCCOC(=O)c2ccc(F)cc2)CC1)c1ccc(F)cc1	73.6 µM
O=C(/C=C/c1ccc2c(c1)OCO2)N1CCCN(C(=O)/C=C/c2ccc3c(c2)OCO3)CC1	> 100 µM (inactive)
COc1ccc(C(=O)OCCN2CCCN(C)CC2)cc1	> 100 µM (inactive)
CNCCN(C)CCCOC(=O)c1ccc(OC)cc1	> 100 µM (inactive)
COc1cc(C(=O)OCCCN2CCCN(C(=O)OC(C)(C)C)CC2)cc(OC)c1OC	> 100 µM (inactive)
COc1cc(OC)cc(C(=O)OCCCN2CCCN(Cc3ccccc3)CC2)c1	> 100 µM (inactive)
COc1ccc(C(=O)OCCCN2CCCN(C)CC2)cc1	> 100 µM (inactive)
COc1cc(C(=O)OCCN2CCCC2)cc(OC)c1OC	> 100 µM (inactive)
O=C(OCCCN1CCN(CCCOC(=O)c2ccc(F)cc2)CC1)c1ccc(F)cc1	> 100 µM (inactive)
CN1CCN(CCCOC(=O)c2ccccc2)CC1	> 100 µM (inactive)
COc1ccc(C(=O)NCCCN2CCCN(C)CC2)cc1	> 100 µM (inactive)
COc1cc(C(=O)OCCN2CCCN(C)CC2)cc(OC)c1OC	> 100 µM (inactive)
COc1cc(-c2cn(CCCN3CCCN(CCCn4cc(-c5cc(OC)c(OC)c(OC)c5)nn4)CC3)nn2)cc(OC)c1OC	> 100 µM (inactive)
COc1cc(CN2CCCN(Cc3cc(OC)c(OC)c(OC)c3)CC2)cc(OC)c1OC	> 100 µM (inactive)

SMILES	CC50
COc1ccc(C(=O)OCCN2CCCN(Cc3ccccc3)CC2)cc1	> 100 µM (inactive)
COc1cc(C(=O)OCCCN2CCCC2)cc(OC)c1OC	> 100 µM (inactive)
COc1ccc(C(=O)OCCCN2CCOCC2)cc1	> 100 µM (inactive)
COc1cc(C(=O)OCCCN2CCN(C)CC2)cc(OC)c1OC	> 100 µM (inactive)
COc1cc(OC)cc(C(=O)OCCN2CCCN(CCOC(=O)c3cc(OC)cc(OC)c3)CC2)c1	> 100 µM (inactive)
O=C(OCCCN1CCOCC1)c1ccc(F)cc1	> 100 µM (inactive)
CC(=O)NCCCN1CCCN(CCCNC(C)=O)CC1	> 100 µM (inactive)
CN1CCCN(CCCOC(=O)c2ccc(F)cc2)CC1	> 100 µM (inactive)
O=C(OCCCN1CCN(CCCOC(=O)c2ccccc2)CC1)c1ccccc1	> 100 µM (inactive)
COc1cc(OC)cc(C(=O)OCCCN2CCCN(C)CC2)c1	> 100 µM (inactive)
COc1cc(C(=O)OCCN2CCN(CCOC(=O)c3cc(OC)c(OC)c(OC)c3)CC2)cc(OC)c1OC	> 100 µM (inactive)
O=C(CN1CCCN(CC(=O)CN2C(=O)c3ccccc3C2=O)CC1)CN1C(=O)c2ccccc2C1=O	> 100 µM (inactive)
COc1ccc(N2C(=O)CC(N3CCCN(C4CC(=O)N(c5ccc(OC)cc5)C4=O)CC3)C2=O)cc1 (stereo not drawn)	> 100 µM (inactive)
COc1cc(OC)cc(C(=O)OCCN2CCCC2)c1	> 100 µM (inactive)
COc1cc(C(=O)OCCCN2CCCN(C(C)=O)CC2)cc(OC)c1OC	> 100 µM (inactive)
COc1cc(C(=O)OCCCN2CCCNCC2)cc(OC)c1OC	> 100 µM (inactive)
COc1ccc(C(=O)OCCCN2CCN(C)CC2)cc1	> 100 µM (inactive)
CN1CCCN(CCCOC(=O)c2ccccc2)CC1	> 100 µM (inactive)
COc1cccc(C(=O)NCCCN2CCN(CCCNC(=O)c3cccc(OC)c3)CC2)c1	> 100 µM (inactive)
COc1ccc(C(=O)OCCN2CCN(C)CC2)cc1	> 100 µM (inactive)
O=C(NCCCN1CCN(CCCNC(=O)c2ccc3c(c2)OCO3)CC1)c1ccc2c(c1)OCO2	> 100 µM (inactive)
COc1cc(C(=O)OCCCN(C)CCN(C)CCCOC(=O)c2cc(OC)c(OC)c(OC)c2)cc(OC)c1OC	> 100 µM (inactive)
